According to PubChem BioAssay (NCI):
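Tested at 5 concentrations; 48 h exposure; 96-well plates; endpoints linearly interpolated, else capped at highest concentration. GI50 = concentration required for 50% inhibition of growth. The concentration for full growth arrest is given as TGI.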

What was measured:
Test in all cases: DTP human tumour cell line panel, 48 h
[1] = test system: UACC-257 melanoma
[2] = test system: LOX IMVI melanoma
[3] = test system: MDA-MB-231 breast
[4] = test system: MDA-MB-435
[5] = test system: HS 578T breast
[6] = test system: SW-620 colon
[7] = test system: K-562 leukemia
[8] = test system: SR leukemia

Row | Structure (SMILES) | TGI [1] | TGI [2] | TGI [3] | TGI [4] | TGI [5] | TGI [6] | TGI [7] | TGI [8] | GI50 [1] | GI50 [2] | GI50 [3] | GI50 [4] | GI50 [5] | GI50 [6] | GI50 [8] | GI50 [7]
1 | COc1cc2c(cc1O)-c1c(cnn1-c1ccc([N+](=O)[O-])cc1)CCC2 | 52 µM | 26.5 µM | 33.2 µM | 48.6 µM | 81.8 µM | 91.3 µM | > 100 µM | – | – | – | – | – | – | – | – | –
2 | CS(=O)(=O)OCC1OC(n2ccc(NC(=O)c3ccccc3)nc2=O)CC1OS(C)(=O)=O (stereo not given) | > 100 µM | > 100 µM | > 100 µM | > 100 µM | > 100 µM | > 100 µM | > 100 µM | > 100 µM | – | – | – | – | – | – | – | –
3 | Nc1ncnc2c1ncn2Cc1ccc(C23CC4CC(CC(C4)C2)C3)c(OCc2cc(F)c(F)cc2F)c1 | 7.4 µM | > 100 µM | > 100 µM | > 100 µM | > 100 µM | > 100 µM | – | – | 2.33 µM | 5.36 µM | 6.39 µM | 5.22 µM | 52 µM | 7.25 µM | – | –
4 | N#C/C(=N\Nc1ccc(Cl)cc1)C(=O)Nc1cc(-c2ccccc2)nn1-c1ccccc1 | 8.62 µM | – | > 100 µM | > 100 µM | > 100 µM | > 100 µM | > 100 µM | > 100 µM | 2.35 µM | – | 2.86 µM | 2.79 µM | 3 µM | 3.11 µM | 3.59 µM | 1.72 µM
5 | Cc1cc2cc3cc(C)c(N(C)C)cc3[n+](C)c2cc1N(C)C | 37.7 µM | 40.8 µM | 9 µM | 14.9 µM | 14.9 µM | 18 µM | > 100 µM | > 100 µM | 4.73 µM | 3.14 µM | 3.17 µM | 3.1 µM | 2.35 µM | 2.92 µM | 3.16 µM | 3.14 µM
6 | N=C(N)c1ccc(OCCOCCOc2ccc(C(=N)N)cc2)cc1 | > 100 µM | > 100 µM | > 100 µM | > 100 µM | > 100 µM | > 100 µM | > 100 µM | > 100 µM | 38.3 µM | > 100 µM | > 100 µM | 84.8 µM | 67.3 µM | > 100 µM | 31.7 µM | 63.3 µM
7 | CC(C)Nc1ccc(Nc2ccccc2)cc1 | 31.5 µM | 29.1 µM | 35.6 µM | 46 µM | > 100 µM | 45.8 µM | 52.5 µM | 49.3 µM | 15.6 µM | 13.1 µM | 8.32 µM | 15.4 µM | 38.3 µM | 15.8 µM | 15.7 µM | 15.6 µM
8 | CCCCOc1ccc(NC(=O)n2nc(N)c3ccccc32)cc1 | 73.5 µM | 24.2 µM | 41.5 µM | > 65.1 µM | 53.4 µM | 37.2 µM | 50.4 µM | 39.5 µM | 24.8 µM | 11.6 µM | 14 µM | 22.8 µM | 20.7 µM | 19 µM | 16 µM | 11.5 µM
9 | Oc1ccc(CN2CCC(N3CCOCC3)CC2)c2cccnc12 | 76.5 µM | > 100 µM | > 100 µM | > 100 µM | > 100 µM | > 100 µM | > 100 µM | > 100 µM | 32.3 µM | 29.9 µM | 47.9 µM | 36.2 µM | 62.1 µM | 60 µM | 34 µM | 28.1 µM
10 | Clc1cc2c(cc1Cl)Oc1cc(Cl)c(Cl)cc1O2 | – | > 0.625 µM | > 0.625 µM | > 0.625 µM | > 0.625 µM | > 0.625 µM | > 0.625 µM | > 0.625 µM | – | > 0.625 µM | > 0.625 µM | > 0.625 µM | > 0.625 µM | > 0.625 µM | > 0.625 µM | > 0.625 µM
11 | CCOC(=O)/C(=N\OC)C(O)C(F)(F)F (stereo not given) | > 100 µM | > 100 µM | > 100 µM | > 100 µM | > 100 µM | > 100 µM | > 100 µM | > 100 µM | – | – | – | – | – | – | – | –
12 | O=c1ccc(N=Nc2ccc([N+](=O)[O-])cc2)ccc1O | 81.6 µM | > 100 µM | 71.2 µM | > 100 µM | > 100 µM | > 100 µM | > 100 µM | > 100 µM | 10.6 µM | 3.36 µM | 9.64 µM | 9.14 µM | 4.27 µM | 3.45 µM | 4.13 µM | 3.83 µM
13 | Cc1cc(Cl)cc2c(N=Nc3ccccc3[N+](=O)[O-])c(O)[nH]c12 | > 100 µM | > 100 µM | > 100 µM | > 100 µM | > 100 µM | > 100 µM | > 100 µM | 82.3 µM | – | – | – | – | – | – | – | –
14 | Cn1cc(C2=C(c3cccc(N)c3)C(=O)NC2=O)c2ccccc21 | > 25 µM | > 25 µM | > 25 µM | > 25 µM | > 25 µM | > 25 µM | > 25 µM | 24.8 µM | > 25 µM | 8.76 µM | 4.52 µM | 18.7 µM | 1.34 µM | 17.8 µM | 9.03 µM | 8.86 µM
15 | O=[N+]([O-])c1ccccc1N=Nc1c(O)[nH]c2ccc(Br)cc12 | > 50.3 µM | > 61 µM | 25.2 µM | > 94.4 µM | 46.2 µM | > 62.4 µM | > 68.3 µM | > 40.5 µM | – | – | – | – | – | – | – | –
16 | CC(=O)CCc1ccc(OC2OC(COC(=O)c3cc(O)c(O)c(O)c3)C(O)C(O)C2OC(=O)/C=C/c2ccccc2)cc1 (stereo not given) | – | 41.4 µM | 44.5 µM | 37.1 µM | > 100 µM | 97.5 µM | 65.5 µM | – | – | 17.1 µM | 19.6 µM | 16.8 µM | 33.8 µM | 35.1 µM | – | 22.6 µM
17 | O=c1cc(-c2ccccc2)oc2cc(O)c(O)c(O)c12 | > 100 µM | > 100 µM | 36.8 µM | 39.8 µM | – | > 100 µM | > 100 µM | – | 39 µM | 28 µM | 14.1 µM | 10.2 µM | – | 17.8 µM | – | 12.6 µM
18 | C=C(C)C1Cc2c(cc(OC)c3c(=O)c4cccc(O)c4oc23)O1 (stereo not given) | > 100 µM | 29.6 µM | 47.6 µM | – | 49.3 µM | > 100 µM | > 100 µM | > 100 µM | – | – | – | – | – | – | – | –
19 | Cc1ccc(NC(=O)Cc2ccc(/C=C/C(=O)c3ncc[nH]3)cc2)cc1 | > 25 µM | 6.76 µM | > 25 µM | > 25 µM | > 25 µM | > 25 µM | – | > 25 µM | > 25 µM | 1.29 µM | 9.46 µM | 5.68 µM | 13.6 µM | 5.22 µM | 0.992 µM | –
20 | O=S(=O)(Cc1ccc(Cl)cc1Cl)c1ccc(Cl)cc1 | – | > 100 µM | > 61.6 µM | 0.671 µM | > 100 µM | > 100 µM | > 100 µM | 11 µM | – | 0.587 µM | 2.38 µM | 0.13 µM | 0.729 µM | 0.365 µM | 0.296 µM | 0.303 µM
21 | CCC1C(=O)OCc2c1cc1n(c2=O)Cc2cc3ccccc3nc2-1 (stereo not given) | > 100 µM | > 51.2 µM | > 100 µM | > 100 µM | > 100 µM | > 100 µM | > 100 µM | – | – | – | – | – | – | – | – | –
22 | COc1cc2c3c(n(CCCN(CCN)CCCn4c5c(c6cc(OC)c(OC)cc6c4=O)C(=O)c4cc6c(cc4-5)OCO6)c(=O)c2cc1OC)-c1cc2c(cc1C3=O)OCO2 | > 89.1 µM | 6.32 µM | 17.3 µM | 23.2 µM | > 100 µM | > 70.7 µM | > 32.5 µM | – | 11.6 µM | 0.57 µM | 3.3 µM | 2.22 µM | 12.6 µM | 0.719 µM | – | 2.73 µM
23 | O=c1c2ccccc2c(Br)c(Br)c2ccccc12 | 43.6 µM | 5.77 µM | 50.7 µM | 21 µM | 42.1 µM | 3.13 µM | – | – | 7.48 µM | 2.22 µM | 19.9 µM | 4.56 µM | 11.8 µM | 1.09 µM | – | –
24 | COc1cc(C(=O)N2N=C(c3ccc(S(C)(=O)=O)cc3)CC2c2ccco2)cc(OC)c1OC (stereo not given) | > 100 µM | > 100 µM | > 100 µM | 7.27 µM | > 100 µM | > 100 µM | > 100 µM | – | > 100 µM | 5.85 µM | 11.2 µM | 1.27 µM | 5.42 µM | 3.62 µM | – | 4.81 µM
25 | COc1cc(-c2nc3sccn3c2-c2ccnc(NCCNS(=O)(=O)c3ccc(Cl)cc3)n2)ccc1F | > 100 µM | > 100 µM | – | 58.1 µM | > 100 µM | > 100 µM | > 100 µM | > 100 µM | 4.47 µM | 3.39 µM | – | 3.63 µM | 8.05 µM | 10.8 µM | 3.94 µM | 2.76 µM
26 | CCOc1ccccc1NC(=O)c1cc2ccccc2cc1O | 5.98 µM | 11.2 µM | 4.19 µM | 7.08 µM | 7.14 µM | 12.6 µM | 14.1 µM | – | 2.23 µM | 3.28 µM | 2.02 µM | 2.38 µM | 2.85 µM | 3.67 µM | – | 3.28 µM
